Experimental data as given in patent US11753395B2 (Kinnate Biopharma Inc., priority 2021, dated 2023).
pEC50, pIC50: −log10 of the molar value.

Columns and labels:
MET = target: T1, MET (Homo sapiens, UniProt P08581); assay: MET Mobility Shift Assay; conditions: biochemical assay IC50; 100 μM ATP, 60 minute kinase reaction
T1 construct: purchased Carna Biosciences 08-151
Description: (§1) Small molecule inhibition of MET kinase activity was evaluated using a fluorescence-based microfluidic mobility shift assay. MET catalyzes the production of ADP from ATP during phosphoryl transfer to the substrate peptide, FLPeptide30 (5-FAM-KKKKEEIYFFF-CONH2) (Perkin Elmer, 760430). MET enzme (Carna Biosciences, 08-151) at 0.625 nM was prepared with 10 mM MgCl2 and 1.5 μM substrate peptide in a buffer containing 50 mM HEPES, 1 mM EGTA, 0.01% Brij-35, 0.05% BSA, and 2 mM DTT and pre-incubated at room temperature for 30 min prior to the start of the reaction. 100 μM ATP was added to start the reaction. The mobility shift assay electrophoretically separates the fluorescently labeled peptides (substrate and phosphorylated product) following the 60 minute kinase reaction. The reaction was terminated by addition of 0.5 M EDTA. Both substrate and product were measured and the ratio of these values used to generate % conversion of substrate to product by the LabChip EZ reader (Perkin Elmer). ICso values were calculated using the inhibition of conversion ratio using Dotmatics Knowledge Solutions Studies curve fitting environment (Dotmatics, Bishops Stortford, UK, CM23) and are presented in Table 2.

MET D1228N = target: T2, MET D1228N (Homo sapiens, UniProt P08581, D1228N); assay: MET D1228N Mobility Shift Assay; conditions: biochemical assay IC50; 100 μM ATP, 60 minute kinase reaction
T2 construct: purchased Signalchem M52-12IG
Description: as §1, with “MET D1228N” for “MET”, “a fluorescence -based” for “a fluorescence-based”, “FLPeptide30 (5-FAM-KKKKEEIYFFF -CONH2)” for “FLPeptide30 (5-FAM-KKKKEEIYFFF-CONH2)”, “MET D1228N enzyme (Signalchem, M52-12IG)” for “MET enzme (Carna Biosciences, 08-151)”, “at 0.313” for “at 0.625”

Ba/F3-TPR-MET cells = target: T3, Ba/F3-TPR-MET cells (Homo sapiens, UniProt P08581); assay: CellTiter-Glo Cell Viability Assay, Ba/F3-TPR-MET; assay type: cell-based; conditions: 72 hours
T3 construct: fused on or other part: P12270 (Nucleoprotein TPR)
Description: (§2) Ba/F3-TPR-MET and Ba/F3-TPR-MET-D1228N cells were seeded at 3000 cells per well in a 96 well plate in 90 μL growth media and allowed to incubate overnight at 37° C. with 5% CO2. The following day, compounds were serially diluted from a 10 mM top dose for a 9-point 3-fold dilution curve in DMSO. Following a 100-fold dilution in growth media, a further 10-fold dilution was made into the cell plate for a final volume of 100 μL and 0.1% DMSO. Compounds and cells were incubated together for 72 hours at 37° C. with 5% CO2. The CellTiter-Glo® 2.0 Assay determines the number of viable cells in culture by quantifying ATP, which indicates the presence of metabolically active cells. Luminescence readout is directly proportional to the number of viable cells in culture. CellTiter-Glo reagent (Promega, G9243) and cell plates were allowed to equilibrate to room temperature for at least 15 min, then 100 μL of CellTiter-Glo was added to each well for a 1:1 ratio of reagent to media. Samples were placed on a shaker for 2 min prior to a 30 min incubation at room temperature protected from light. Luminescence was read on a Perkin Elmer Envision plate reader 2105 and used to calculate ICso values within the Dotmatics Knowledge Solutions Studies curve fitting environment (Dotmatics, Bishops Stortford, UK, CM23) and are presented in Table 2.

[1] = target: T4, Ba/F3-TPR-MET-D1228N cells (Homo sapiens, UniProt P08581, D1228N, cells depend on it); assay: CellTiter-Glo Cell Viability Assay, Ba/F3-TPR-MET-D1228N; assay type: cell-based; conditions: 72 hours
T4 construct: fused on or other part: P12270 (Nucleoprotein TPR)
Description: as §2

T4 sequence (P08581 whole entry D1228N, the tested form may be a part): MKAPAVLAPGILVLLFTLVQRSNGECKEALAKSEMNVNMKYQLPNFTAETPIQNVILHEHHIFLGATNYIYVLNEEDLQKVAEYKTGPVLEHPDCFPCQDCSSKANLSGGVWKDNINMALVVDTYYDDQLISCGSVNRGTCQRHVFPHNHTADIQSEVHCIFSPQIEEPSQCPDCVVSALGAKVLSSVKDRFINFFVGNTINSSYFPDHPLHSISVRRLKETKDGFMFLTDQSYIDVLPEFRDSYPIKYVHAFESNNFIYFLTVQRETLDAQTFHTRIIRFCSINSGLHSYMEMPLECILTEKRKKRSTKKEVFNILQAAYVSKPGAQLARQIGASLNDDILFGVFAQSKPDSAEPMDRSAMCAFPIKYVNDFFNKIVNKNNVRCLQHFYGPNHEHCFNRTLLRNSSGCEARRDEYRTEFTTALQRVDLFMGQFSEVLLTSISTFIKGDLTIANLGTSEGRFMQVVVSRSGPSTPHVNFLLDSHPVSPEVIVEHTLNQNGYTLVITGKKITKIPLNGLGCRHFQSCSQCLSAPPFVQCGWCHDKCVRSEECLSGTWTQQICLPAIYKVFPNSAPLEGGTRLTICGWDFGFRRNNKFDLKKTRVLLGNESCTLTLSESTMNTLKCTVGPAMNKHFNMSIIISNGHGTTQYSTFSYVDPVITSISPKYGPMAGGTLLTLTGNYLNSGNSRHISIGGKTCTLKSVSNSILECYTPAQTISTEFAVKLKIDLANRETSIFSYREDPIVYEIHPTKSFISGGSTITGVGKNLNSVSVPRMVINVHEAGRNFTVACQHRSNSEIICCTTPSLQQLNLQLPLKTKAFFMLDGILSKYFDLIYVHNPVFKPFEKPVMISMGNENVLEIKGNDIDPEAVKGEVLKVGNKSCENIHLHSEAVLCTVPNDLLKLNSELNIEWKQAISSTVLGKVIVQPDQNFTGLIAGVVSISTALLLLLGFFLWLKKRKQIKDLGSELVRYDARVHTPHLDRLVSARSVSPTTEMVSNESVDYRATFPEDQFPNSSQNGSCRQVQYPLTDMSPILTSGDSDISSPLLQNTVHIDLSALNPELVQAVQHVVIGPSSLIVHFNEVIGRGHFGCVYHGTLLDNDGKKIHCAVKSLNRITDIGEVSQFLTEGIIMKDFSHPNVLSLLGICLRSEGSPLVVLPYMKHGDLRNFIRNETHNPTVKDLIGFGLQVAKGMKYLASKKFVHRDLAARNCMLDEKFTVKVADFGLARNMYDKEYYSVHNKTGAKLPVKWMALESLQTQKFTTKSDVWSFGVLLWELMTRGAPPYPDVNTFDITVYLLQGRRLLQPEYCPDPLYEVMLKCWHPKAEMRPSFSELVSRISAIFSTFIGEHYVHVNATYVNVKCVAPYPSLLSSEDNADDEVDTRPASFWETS
T1 sequence (P08581 25-1390): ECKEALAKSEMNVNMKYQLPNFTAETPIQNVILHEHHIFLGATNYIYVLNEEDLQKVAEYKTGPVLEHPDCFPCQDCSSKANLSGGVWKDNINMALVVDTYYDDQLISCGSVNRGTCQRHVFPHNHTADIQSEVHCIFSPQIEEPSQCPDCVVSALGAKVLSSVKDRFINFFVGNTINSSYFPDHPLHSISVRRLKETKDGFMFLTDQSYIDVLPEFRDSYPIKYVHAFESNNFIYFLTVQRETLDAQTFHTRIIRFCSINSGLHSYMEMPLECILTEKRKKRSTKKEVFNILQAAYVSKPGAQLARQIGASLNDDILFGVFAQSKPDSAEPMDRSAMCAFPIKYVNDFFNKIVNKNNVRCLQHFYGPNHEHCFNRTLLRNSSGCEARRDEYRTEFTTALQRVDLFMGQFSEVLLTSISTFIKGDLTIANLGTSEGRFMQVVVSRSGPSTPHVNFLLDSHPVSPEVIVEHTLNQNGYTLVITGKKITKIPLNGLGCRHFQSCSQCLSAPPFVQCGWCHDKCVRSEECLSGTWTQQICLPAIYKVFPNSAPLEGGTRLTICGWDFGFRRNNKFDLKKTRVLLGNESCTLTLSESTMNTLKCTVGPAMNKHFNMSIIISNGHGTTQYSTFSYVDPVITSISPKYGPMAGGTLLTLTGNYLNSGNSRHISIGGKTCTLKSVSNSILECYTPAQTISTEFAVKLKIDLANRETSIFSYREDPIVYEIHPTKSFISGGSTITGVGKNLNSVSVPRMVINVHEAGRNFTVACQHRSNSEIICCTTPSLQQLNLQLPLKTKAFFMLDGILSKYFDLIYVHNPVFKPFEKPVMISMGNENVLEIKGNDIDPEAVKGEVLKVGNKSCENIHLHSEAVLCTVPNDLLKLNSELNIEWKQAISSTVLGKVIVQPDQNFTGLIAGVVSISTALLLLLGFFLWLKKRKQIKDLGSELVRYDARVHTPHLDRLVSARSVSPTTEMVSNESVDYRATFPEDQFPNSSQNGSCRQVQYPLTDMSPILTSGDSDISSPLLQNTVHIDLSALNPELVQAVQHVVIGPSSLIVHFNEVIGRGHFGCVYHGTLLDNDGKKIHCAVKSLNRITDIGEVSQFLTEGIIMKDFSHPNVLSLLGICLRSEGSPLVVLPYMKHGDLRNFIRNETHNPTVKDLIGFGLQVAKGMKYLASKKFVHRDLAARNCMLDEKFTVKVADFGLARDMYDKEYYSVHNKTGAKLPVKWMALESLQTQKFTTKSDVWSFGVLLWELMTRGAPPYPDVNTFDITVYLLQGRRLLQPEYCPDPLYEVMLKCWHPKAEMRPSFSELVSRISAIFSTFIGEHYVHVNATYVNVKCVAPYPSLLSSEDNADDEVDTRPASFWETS
T3 sequence (P08581 whole entry, change not shown, the tested form may be a part): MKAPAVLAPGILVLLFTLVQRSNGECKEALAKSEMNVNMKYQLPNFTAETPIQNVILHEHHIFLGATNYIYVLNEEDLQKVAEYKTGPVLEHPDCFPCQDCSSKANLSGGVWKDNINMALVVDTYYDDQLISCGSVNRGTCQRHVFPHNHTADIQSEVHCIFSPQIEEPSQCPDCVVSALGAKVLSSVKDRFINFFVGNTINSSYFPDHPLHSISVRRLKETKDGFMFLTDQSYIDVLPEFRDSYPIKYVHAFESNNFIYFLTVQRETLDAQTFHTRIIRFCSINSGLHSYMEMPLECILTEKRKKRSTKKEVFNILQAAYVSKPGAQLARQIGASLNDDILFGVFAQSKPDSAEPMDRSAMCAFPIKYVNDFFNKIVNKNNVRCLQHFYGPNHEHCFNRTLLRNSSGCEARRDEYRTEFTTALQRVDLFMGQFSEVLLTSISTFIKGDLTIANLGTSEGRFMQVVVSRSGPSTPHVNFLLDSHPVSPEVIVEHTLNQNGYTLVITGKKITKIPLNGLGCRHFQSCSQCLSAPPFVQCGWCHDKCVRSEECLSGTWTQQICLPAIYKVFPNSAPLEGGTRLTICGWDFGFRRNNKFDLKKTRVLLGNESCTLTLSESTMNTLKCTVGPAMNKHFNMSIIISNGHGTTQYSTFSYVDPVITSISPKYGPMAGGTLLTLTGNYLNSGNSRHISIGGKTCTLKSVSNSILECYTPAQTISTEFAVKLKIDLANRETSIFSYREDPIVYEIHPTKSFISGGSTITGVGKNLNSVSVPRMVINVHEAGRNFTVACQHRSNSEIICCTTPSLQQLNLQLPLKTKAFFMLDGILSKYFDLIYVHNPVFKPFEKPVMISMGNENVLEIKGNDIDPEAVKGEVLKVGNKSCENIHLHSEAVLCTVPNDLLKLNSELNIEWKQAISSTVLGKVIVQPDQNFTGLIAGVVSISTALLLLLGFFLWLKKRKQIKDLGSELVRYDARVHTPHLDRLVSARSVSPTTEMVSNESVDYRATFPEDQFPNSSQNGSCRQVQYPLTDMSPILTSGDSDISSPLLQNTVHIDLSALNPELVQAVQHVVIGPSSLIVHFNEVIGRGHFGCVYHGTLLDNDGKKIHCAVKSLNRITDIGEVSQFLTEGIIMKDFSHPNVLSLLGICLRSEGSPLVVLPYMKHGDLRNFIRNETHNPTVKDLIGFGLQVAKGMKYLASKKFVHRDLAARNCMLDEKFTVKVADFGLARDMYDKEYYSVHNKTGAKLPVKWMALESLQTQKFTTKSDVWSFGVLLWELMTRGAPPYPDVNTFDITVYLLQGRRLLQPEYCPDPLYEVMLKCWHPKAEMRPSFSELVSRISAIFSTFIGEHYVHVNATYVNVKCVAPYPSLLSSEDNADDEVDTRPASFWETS

Compound	pIC50 (MET)	pIC50 (MET D1228N)	pEC50 (Ba/F3-TPR-MET cells)	pEC50 [1]
CNCCOc1ccc2c(Oc3c(F)cc(NC(=O)c4ncccc4OC4CC4)cc3F)ccnc2c1 [Example 80, 3-cyclopropoxy-N-[3,5-difluoro-4-({7-[2-(methylamino)ethoxy]quinolin-4-yl}oxy)phenyl]pyridine-2-carboxamide]	≥ 7.00	≥ 7.00	6.00 to 7.00	≥ 7.00
CNCCOc1cc2nccc(Oc3c(F)cc(NC(=O)c4cnccc4OC)c(F)c3F)c2cc1OC [Example 50, 4-methoxy-N-(2,3,5-trifluoro-4-((6-methoxy-7-(2-(methylamino)ethoxy)quinolin-4-yl)oxy)phenyl)pyridine-3-carboxamide]	≥ 7.00	≥ 7.00	≥ 7.00	≥ 7.00
CCOc1ccncc1C(=O)Nc1cc(F)c(Oc2ccnc3cc(OCCNC)c(OC)cc23)c(F)c1F [Example 51, 4-ethoxy-N-[2,3,5-trifluoro-4-({6-methoxy-7-[2-(methylamino)ethoxy]quinolin-4-yl}oxy)phenyl]pyridine-3-carboxamide]	≥ 7.00	≥ 7.00	6.00 to 7.00	≥ 7.00
COCCOc1cc2nccc(Oc3c(F)cc(NC(=O)c4cnccc4OC4CC4)cc3F)c2cc1OC [Example 106, 4-cyclopropoxy-N-(3,5-difluoro-4-{[6-methoxy-7-(2-methoxyethoxy)quinolin-4-yl]oxy}phenyl)pyridine-3-carboxamide]	≥ 7.00	≥ 7.00	≥ 7.00	≥ 7.00
CNCCOc1cc2nccc(Oc3c(F)cc(NC(=O)c4cnccc4OC)cc3Cl)c2cc1OC [Example 6, N-(3-chloro-5-fluoro-4-((6-methoxy-7-(2-(methylamino)ethoxy)quinolin-4-yl)oxy)phenyl)-4-methoxypyridine-3-carboxamide]	≥ 7.00	≥ 7.00	6.00 to 7.00	6.00 to 7.00
CNCCOc1cc2nccc(Oc3cc(F)c(NC(=O)c4c(OC)ccnc4F)cc3F)c2cc1OC [Example 25, N-[2,5-difluoro-4-({6-methoxy-7-[2-(methylamino)ethoxy]quinolin-4-yl}oxy)phenyl]-2-fluoro-4-methoxypyridine-3-carboxamide]	≥ 7.00	≥ 7.00	6.00 to 7.00	6.00 to 7.00
COc1cc2nccc(Oc3c(F)cc(NC(=O)c4cnccc4OC)c(F)c3F)c2cc1O[C@@H](C)CO [Example 133, (S)-4-methoxy-N-(2,3,5-trifluoro-4-((6-((1-hydroxypropan-2-yl)oxy)-7-methoxyquinolin-4-yl)oxy)phenyl)nicotinamide]	≥ 7.00	≥ 7.00	≥ 7.00	≥ 7.00
COc1cc2c(Oc3c(F)cc(NC(=O)c4cnccc4OC4CC4)cc3F)ccnc2cc1OCCCN1CCOCC1 [Example 53, 4-cyclopropoxy-N-[3,5-difluoro-4-({6-methoxy-7-[3-(morpholin-4-yl)propoxy]quinolin-4-yl}oxy)phenyl]pyridine-3-carboxamide]	≥ 7.00	≥ 7.00	≥ 7.00	≥ 7.00
CNCCOc1ccc2c(Oc3c(F)cc(NC(=O)c4ccncc4OC4CC4)cc3F)ccnc2c1 [Example 81, 3-cyclopropoxy-N-(3,5-difluoro-4-((7-(2-(methylamino)ethoxy)quinolin-4-yl)oxy)phenyl)isonicotinamide]	≥ 7.00	≥ 7.00	≥ 7.00	≥ 7.00
CNCCOc1cc2nccc(Oc3c(F)cc(NC(=O)c4cnc(Cl)cc4OC)cc3F)c2cc1OC [Example 3, 6-chloro-N-(3,5-difluoro-4-((6-methoxy-7-(2-(methylamino)ethoxy)quinolin-4-yl)oxy)phenyl)-4-methoxypyridine-3-carboxamide]	≥ 7.00	≥ 7.00	≥ 7.00	6.00 to 7.00
CCNCCOc1cc2nccc(Oc3c(F)cc(NC(=O)c4cnccc4OC4CC4)cc3F)c2cc1OC [Example 75, 4-cyclopropoxy-N-[4-({7-[2-(ethylamino)ethoxy]-6-methoxyquinolin-4-yl}oxy) -3,5-difluorophenyl]pyridine-3-carboxamide]	≥ 7.00	≥ 7.00	≥ 7.00	≥ 7.00
COc1ccc2c(Oc3c(F)cc(NC(=O)c4cnccc4OC)cc3F)ccnc2c1 [Example 35, N-{3,5-difluoro-4-[(7-methoxyquinolin-4-yl)oxy]phenyl}-4-methoxypyridine-3-carboxamide]	≥ 7.00	≥ 7.00	6.00 to 7.00	6.00 to 7.00
CNCCOc1cc2nccc(Oc3c(F)cc(NC(=O)c4cnccc4OC[C@@H](C)O)cc3F)c2cc1OC [Example 65, (R)-N-(3,5-difluoro-4-((6-methoxy-7-(2-(methylamino)ethoxy)quinolin-4-yl)oxy)phenyl)-4-(2-hydroxypropoxy)pyridine-3-carboxamide]	≥ 7.00	≥ 7.00	6.00 to 7.00	≥ 7.00
CNCCOc1cc2nccc(Oc3c(F)cc(NC(=O)c4cnccc4OC4CCC4)cc3F)c2cc1OC [Example 55, 4-cyclobutoxy-N-(3,5-difluoro-4-((6-methoxy-7-(2-(methylamino)ethoxy)quinolin-4-yl)oxy)phenyl)pyridine-3-carboxamide]	≥ 7.00	≥ 7.00	6.00 to 7.00	≥ 7.00
CCOc1ccncc1C(=O)Nc1cc(F)c(Oc2ccnc3cc(OCCNC)ccc23)c(F)c1 [Example 11, N-(3,5-difluoro-4-((7-(2-(methylamino)ethoxy)quinolin-4-yl)oxy)phenyl)-4-ethoxypyridine-3-carboxamide]	≥ 7.00	≥ 7.00		
CNCCOc1cc2nccc(Oc3ccc(NC(=O)c4cnccc4OC(F)F)c(F)c3F)c2cc1OC [Example 48, N-[2,3-difluoro-4-({6-methoxy-7-[2-(methylamino)ethoxy]quinolin-4-yl}oxy)phenyl]-4-(difluoromethoxy)pyridine-3-carboxamide]	≥ 7.00	≥ 7.00		
CNCCOc1cc2nccc(Oc3ccc(NC(=O)c4cnc(N)cc4OC)c(F)c3F)c2cc1OC [Example 33, 6-amino-N-[2,3-difluoro-4-({6-methoxy-7-[2-(methylamino)ethoxy]quinolin-4-yl}oxy)phenyl]-4-methoxypyridine-3-carboxamide]	≥ 7.00	≥ 7.00		
CNCCOc1cc2nccc(Oc3ccc(NC(=O)c4cnccc4OC4CC4)c(F)c3F)c2cc1OC [Example 83, 4-cyclopropoxy-N-[2,3-difluoro-4-({6-methoxy-7-[2-(methylamino)ethoxy]quinolin-4-yl}oxy)phenyl]pyridine-3-carboxamide]	≥ 7.00	≥ 7.00		
CNCCOc1cc2nccc(Oc3cc(F)c(NC(=O)c4cnc(Cl)cc4OC)cc3F)c2cc1OC [Example 26, 6-chloro-N-[2,5-difluoro-4-({6-methoxy-7-[2-(methylamino)ethoxy]quinolin-4-yl}oxy)phenyl]-4-methoxypyridine-3-carboxamide]	≥ 7.00	≥ 7.00		
